The target of one data set is T1, BRD4-1 (Homo sapiens, UniProt O60885).
T1 construct: evaluated against Bromodomain 1 by Reaction Biology Corporation; purchased Reaction Biology Corporation
Put plainly: Bromodomain profiling assay, AlphaScreen binding, H4/4Ac ligand. The following applies: NA = no activity.

Data set [1] has as its system co-cultured stromal cells. Description: EMMA ex vivo platform, co-cultured stroma. The data set is classed as cell-based. The conditions noted are these: highest concentration 20 μM. The protocol:
Figure 7. MA9–060 treatment compromises the survival of patient NDMM and RRMM cells ex vivo. A. Representative viability (live cell imaging) response of CD138^+ cells from NDMM patient (Pt620) cultured and tested in autologous stromal microenvironment in EMMA’s ex vivo platform, exposed to three different concentrations of MA9–060 (0.7, 2.2, 6.7 μM). […] (not shown here – 20 μM). B. Ex vivo EMMA platform assay to quantify the chemosensitivity of primary CD138^+ MM cells plated in a collagen matrix with bone marrow stroma and patient plasma. […] C. […] H. Immunoblot showing levels of indicated proteins in CD138^+ cells isolated from RRMM patients (Pt971, Pt1050). Pt1050 CD138^+ cells were assessed for ULK3-mediated autophagy related proteins (ATGs), following treatment with MA9–060 (1μM at 2 and 6 hours).
402 aspirate cells were enriched for CD138+ expression using Miltenyi (Bergisch Gladbach, Germany)
403 130-051-301 antibody-conjugated magnetic beads. MM cells (CD138+) were seeded in Corning
404 Cell BIND 384 well plates (Corning, NY) with collagen I and previously established human-
405 derived stroma, containing approximately 4000 MM cells and 1000 stromal cells. Each well was
406 filled with 80μL of RPMI 1640 media supplemented with fetal bovine serum (FBS, heat […]
422 images acquired for each well, we quantified non-destructively, and without the need to separate […]

Another data set concerns U266-Luc MM cells. Description: U266-Luc in vivo model, tail vein injection. The conditions noted are these: 10 mg/kg/day subcutaneously, M-F. On the procedure: For the U266-Luc model, 1 × 10^6 cells (100 μl/PBS) were tail vein injected into 4- to 6-week-old female and male NSG mice. […] Endpoint was represented by hind limb paralysis or >20% weight loss. When sacrificed, tumors tibiae were harvested and fixed in 10% neutral buffered formalin for 24 hours. Bioluminescent signal is reported as the average of the sum of dorsal and ventral signal of the mice/group/timepoint. […]
28 Animal Experimentation: All animal experiments were performed with approval from the
29 Moffitt/University of South Florida Institutional Animal Care and Use Committee (Protocol
31 validation of MA9 efficacy (Figure 4), we initially included n = 10 mice per treatment group:
Randomization based on sex, weight,
33 and initial tumor burden was conducted, followed by treatment with either vehicle control (n = 6),
35 Tumor progression was tracked via bioluminescence: endpoint was paralysis or >20% weight loss.
36 Experiments were blinded. […]
38 For MA9 therapy efficacy, mice were treated with vehicle (n=10) or MA9 (10 mg/kg/day,
39 subcutaneously, M-F from day 20; n=10) (Supplementary Fig. 7E, F). Survival and toxicity
40 (weight, clinical signs) was monitored.
43 Luciferase-labeled MM cells 5TGM1-Luc (RRID: CVCL_VI66) and U266-Luc (RRID: […]
51 cells (all from the ATCC, USA) were routinely cultured at 37 °C in Roswell Park Memorial
53 FBS1) and penicillin/streptomycin (hereafter, complete medium).
54 Cells were not used for five days following PI-treatment. All myeloma cell lines were […]

Protocol for BRD4-1: 331 Bromodomain profiling assay
333 evaluated against Bromodomain 1 by Reaction Biology Corporation.
334 The compounds were subjected to testing using a 10-dose IC50 singlet approach, involving a 3-
335 fold serial dilution starting at 10 μM, specifically against BRD4-1. Additionally, as a benchmark,
340 Detection was carried out through the AlphaScreen Binding assay with excitation/emission
341 wavelengths set at 680/520-620 nm, respectively, using the Enspire platform.
342 The data acquisition included raw data, represented as signal-background*, % Binding (relative to
343 DMSO controls), and curve fits.

In general, IC50 refers to the concentration that inhibits the measured activity by half. A lower IC50 goes with greater potency. The compound `Cc1cnc(Nc2ccc(C3CCN(C)CC3)c(F)c2)nc1Nc1ccc(Cl)c(NS(=O)(=O)C(C)(C)C)c1` [MA9060] had an IC50 on BRD4-1 of 3.8 nM. Moreover, the “toxicity for co-cultured stromal cells” value in data set [1] is listed as “no toxicity”. Besides, in the data set with U266-Luc MM cells, the “MM-induced osteolysis (X-ray, histology)” value is recorded as “significantly protected against MM-induced osteolysis”; the “toxicity (weight loss, lethargy, ruffled hair)” value is listed as “did not show any sign of toxicity”; the “tumor growth (bioluminescence) vs control” value is “significantly impaired tumor growth”. In addition, the “toxicity (weight loss, lethargy, ruffled hair)” value with U266-Luc MM cells (listed as MA9) is listed as “no overt toxicities”.

These data come from PMC12363935, “Unc-51 Like Kinase 3 (ULK3) is essential for autophagy and cell survival in multiple myeloma” (Research Square, 2025).
